Data published in patent publication US20240376432A1, “METHOD FOR PREPARING PLURIPOTENT STEM CELL-DERIVED HEMATOPOIETIC STEM CELL AND METHOD FOR CONSTRUCTING HUMANIZED MOUSE MODEL BY USING HEMATOPOIETIC STEM CELL THUS PREPARED” (SUNGKWANG MEDICAL FOUNDATION, priority 2021, published 2024).

Tested on: human pluripotent stem cells (hPSCs)
Test: Differentiation of human pluripotent stem cells into hematopoietic stem cells, proportion of CD34+CD45+ cells by FACS
Assay type: cell-based
Description: Specific experiments on the method of preparing human hematopoietic stem cells were performed as follows. First, isolated human pluripotent stem cells (hPSCs) were maintained in stemMACS-IPS brew medium for 2 days. The differentiation base culture medium consisted of the following composition: Stempro 34-SFM (+stempro sup)+200 ug/ml of human Transferrin +2 mM of L-glutamine+0.5 mM of L-ascorbic acid+0.45 mM of MTG (1-thioglycerol) +1% of penicillin/streptomycin. To induce mesodermfrom the isolated hPSCs, treatment was performed with CHIR99021 (5 uM) alone, a representative example of a GSK inhibitor, for about 2 days. Next, treatment was performed with 50 ng/ml of BMP4, 50 ng/ml of VEGF, and 100 ng/ml of bFGF for 2 days to induce hemangioblasts. Next, 50 ng/ml of VEGF, 50 ng/ml of bFGF, and SB-431542 (10 μM) as representative examples of TGF-beta inhibitors and 1 μM of retinoic acid (RA) were added and cultured for about 1 day, and 0.1% (w/v) of PVA, 50 ng/ml of stem cell factor (SCF), and 10 ng/ml of bFGF were added and cultured for about 11 days (FIG. 2).
Specifically, it is widely known that vascular endothelial growth factor (VEGF) may be used to induce mesoderm and induce and maintain hemangioblasts (precursors of HSCs), and has been mainly used during the period of inducing hematopoietic stem cells. Therefore, to determine what effect it will have on the final hematopoietic stem cell generation efficiency when VEGF is excluded from the induction of hematopoietic stem cells, the results of hematopoietic stem cell differentiation according to the presence or absence of VEGF (10 ng/ml) were confirmed under the same conditions (50 ng/ml of SCF, 10 ng/ml of bFGF, 20 ng/ml of IL-3 and 10 ng/ml of IL-6) (FIG. 3A).
To confirm the differentiation results, Fluorescence Activated Cell Sorting (FACS) was performed to confirm the proportion of CD34^+CD45^+ cells. […] After washing away the remaining antibodies with staining buffer, 200 μl of staining buffer was added again and analyzed using a flow cytometer.
Specifically, in the existing method, treatment was performed with bone morphogenetic protein 4 (BMP4), VEGF, and CHIR99021 to induce mesoderm. However, it was determined that the above conditions were not compatible with the sequence of the process for differentiating stem cells into hematopoietic stem cells. […]
For this purpose, the efficiency of hematopoietic stem cell differentiation when treated with SB-431542 (SB4), a representative example of a TGF-beta inhibitor, in addition to VEGF and basic fibroblast growth factor (bFGF) for various periods of time, was determined (FIG. 5A). […]

## VEGF
VEGF (10 ng/ml) present or absent during hematopoietic stem cell induction, with 50 ng/ml SCF, 10 ng/ml bFGF, 20 ng/ml IL-3, 10 ng/ml IL-6, FIG. 3B
  ratio of CD34+CD45+ cells: excluding VEGF from the induction of hematopoietic stem cells was significantly superior

## NC(=O)c1ccc(-c2nc(-c3ccc4c(c3)OCO4)c(-c3ccccn3)[nH]2)cc1 [SB4]
EHT induction, SB4 for a long period of time in addition to VEGF and bFGF, FIG. 5B
  hematopoietic stem cell differentiation efficiency: significantly reduced
EHT induction, SB4 for less than 24 hours in addition to VEGF and bFGF, FIG. 5B
  proportion of CD34+CD45+ cells: significantly superior

## Cc1cnc(-c2cnc(NCCNc3ccc(C#N)cn3)nc2-c2ccc(Cl)cc2Cl)[nH]1 [CHIR99021, 6-[[2-[[4-(2,4-Dichlorophenyl)-5-(5-methyl-1H-imidazol-2-yl)-2-pyrimidinyl]amino]ethyl]amino]-3-pyridinecarbonitrile]
CHIR99021 alone in mesoderm induction, compared with BMP4 (5 ng/ml), VEGF (50 ng/ml) and CHIR99021, FIG. 4B
  ratio of CD34+CD45+ cells: significantly superior
